Assay results taken from patent US20150159131A1, “METHODS AND COMPOSITIONS FOR REGULATING MUSASHI FUNCTION” (Board of Trustees of the University of Arkansas, priority 2011, published 2015).

Tests used:
Assay type in all cases: cell-based, Xenopus
[1] = system: Mos mRNA; experiment: Polyadenylation assay of endogenous Mos mRNA (RNA ligation-coupled PCR)
Description: The increase in PCR product length is specifically due to extension of the poly[A] tail. The primer used to analyze endogenous Xenopus Musashi1 mRNA polyadenylation was [NT] ID NO:24).

[2] = system: Musashi1 S322 phosphorylation; experiment: Western blot for S322-phosphorylated Musashi1 in oocyte lysates
Experimental: Xenopus oocytes were isolated and cultured. Oocytes were induced to mature with 2 μg/ml progesterone. The rate of germinal vesicle breakdown (GVBD) was scored morphologically by observing the appearance of a white spot on the animal pole. Because oocytes from different frogs mature at different rates in response to progesterone, the culture times were standardized between experiments to the time taken for 50% of oocytes to undergo GVBD. Where indicated, oocytes were pre-treated with 50 μM MEK inhibitor, UO126 or DMSO vehicle for 30 minutes.
Antisera for phosphorylation specific Musashi1 S322 were generated by immunizing rabbits with the peptide VSSYISAAS(phospho)PAPSTGF (SEQ ID NO:26). The antibodies were affinity purified through a peptide-affinity column and used at 1:1000. Abcam antibodies to Musashi1 were used at 1:1000. Sigma Tubulin antibodies were used at 1:20,000. The phospho-specific Cdc2 antibody was used at 1:1000 and detects the inhibitory Tyr15 phosphorylation. The phospho-specific MAP kinase antibody (Cell Signaling) was used at 1:1000 and detects the activating phosphorylations at Thr202/Tyr204. The GST antibody (Santa Cruz) was used at 1:1000. The Xenopus Ringo antibody was used at 1:1000.
Oocytes were lysed in NP40 lysis buffer containing sodium vanadate and a protease inhibitor cocktail. Where indicated, a portion of the lysate was transferred to STAT-60 for RNA extraction. […]

[3] = system: Musashi1 protein; experiment: Western blot for endogenous Musashi1 protein accumulation at GVBD50; details: at GVBD50, normalized to tubulin, 3 experiments, p<0.01
Experimental: Oocytes were lysed in NP40 lysis buffer containing sodium vanadate and a protease inhibitor cocktail. Where indicated, a portion of the lysate was transferred to STAT-60 for RNA extraction. Protein lysates were then spun, clarified and transferred immediately to 1× sample buffer. The lysates were run on a 10% Nupage gel and transferred to a 0.2 μm-pore-size nitrocellulose filter. The membrane was blocked with 1% bovine serum albumin in TBST for 60 min at room temperature. Following incubation with primary antibody, filters were incubated with horseradish peroxidase conjugated secondary antibody using enhanced chemiluminescence in a Fluorchem 8000 Advanced Imager. To determine if Musashi is regulated by progesterone, Musashi levels were detected in progesterone stimulated oocytes using methods described in Example 1. […] Lysates from oocytes treated with or without progesterone were analyzed by western blot for endogenous Musashi1 protein accumulation at GVBD50. Quantifications of fold changes in Musashi1 levels (as indicated below western) were normalized to tubulin from the same sample, and levels in immature oocytes (Imm) arbitrarily set to 1.0. The bar graph of FIG. 1B represents data from 3 independent experiments with S.E.M. (Student's t-test; p<0.01).

N#CC(=C(/N)Sc1ccccc1N)/C(C#N)=C(/N)Sc1ccccc1N [UO126]
effect on initial polyadenylation or translation of the Mos mRNA ([1]; oocytes treated with MAP kinase signaling inhibitor): does not prevent | effect on progesterone-stimulated Musashi S322 phosphorylation ([2]; oocytes expressing GST-Musashi1, progesterone stimulated): significant attenuation

CC(=O)[C@H]1CC[C@H]2[C@@H]3CCC4=CC(=O)CC[C@]4(C)[C@H]3CC[C@]12C [progesterone]
time at which Mos mRNA polyadenylation initiates after progesterone stimulation ([1]; oocytes expressing GST-Musashi): approximately 3 hours | Musashi protein levels in response to progesterone stimulation [3]: increase | maximum progesterone-induced change in phospho-Musashi1 levels normalized to tubulin, relative to immature oocytes ([2]; uninjected oocytes, endogenous Musashi1, n=4, p<0.05): 1.25+/−0.11 fold
